According to patent US8338471B2, “(2,5-dioxoimidazolidin-i-yl)-n-hydroxy-acetamides as metalloproteinase inhibitors” (Medivir AB, priority 2005, dated 2012):

Experiments:
Assay type in all cases: biochemical
recombinant human MMP-12 = target: T1, recombinant human MMP-12 (Homo sapiens, UniProt P39900); experiment: MMP-12 enzyme assay (FRET substrate)
T1 construct: purchased R&D Systems; host or cells: mouse myeloma cell line NS-40 (so in the source)
Protocol: A typical MMP-12 enzyme assay employs recombinant human MMP-12 catalytic domain expressed and purified as described by Parkar A. A. et al, (2000), Protein Expression and Purification, 20:152. The purified enzyme can be used to monitor inhibitors of activity as follows: MMP-12 (50 ng/ml final concentration) is incubated for 60 minutes at room temperature with the synthetic substrate Mac-Pro-Cha-Gly-Nva-His-Ala-Dpa-NH2 in assay buffer (0.1M “Tris-HCl” (trade mark) buffer, pH 7.3 containing O.1M NaCl, 20 mM CaCl2, 0.020 mM ZnCl and 0.05% (w/v) “Brij 35” (trade mark) detergent) in the presence (5 concentrations) or absence of inhibitors. Activity is determined by measuring the fluorescence at λex 320 nm and λem 405 nm. Percent inhibition is calculated as follows: % Inhibition is equal to the (Fluorescenceplus inhibitor−Fluorescencebackground); divided by the (Fluorescenceminus inhibitor−Fluorescencebackground);
A favoured assay employs full length recombinant human MMP-12, amino acid residues 1 to 470 (Shapiro et al 1993, J Biol Chem 268:23824-23829) expressed in mouse myeloma cell line NS-40. The purified rhMMP-12 typically has the N terminal sequence L17PLNSSTSLE and an SDS-PAGE apparent molecular mass of approx. 56 kDa. Such proteins are available from R&D Systems, USA as a lyophilised 0.2 um filtered solution of 25 mM MES, 0.15M NaCl, 10 mMCaCl2, 0.15% Brij 35, pH 5.5. Auto-activation of the rhMMP-12 can be achieved by dilution to 0.05 mg/ml into TCNB buffer (50 mMTris, 10 mM CaCl2, 0.15M NaCl, 0.05% Brij 35, pH 7) and incubation at 37 degrees for 30 hours. A preferred buffer for MMP work is 50 mM Tris.HCl, pH 7.5, 200 mM Ca acetate.
Suitable FRET substrates include (7-methoxycoumarin-4-yl)acetyl-Pro-Leu-Gly-Leu-(3-(2,4-dinitrophenoyl)-L-2,3-diaminopropionyl)-Ala-Arg-NH2, commercially available from R&D Systems, USA. Typical specific activities are >500 picomol/min/ug, with rhMMP-12 measured with 10 uM of this substrate, 20 ng activated enzyme in 100 ul TCNB buffer at room temperature.
An alternative general MMP substrate is Dnp-PLGLWAD-R-NH2.
Category A indicates ≦50 nM inhibition, category B indicates 51-200 nM inhibition and category C indicates >200 nM: […]

recombinant human TACE = target: T2, recombinant human TACE (Homo sapiens, UniProt P78536); experiment: TACE enzyme assay (FRET substrate), selectivity versus MMP-12; conditions: fold difference in Ki for TACE compared to MMP-12
T2 construct: purchased R&D Systems
T2 sequence (P78536 215-824): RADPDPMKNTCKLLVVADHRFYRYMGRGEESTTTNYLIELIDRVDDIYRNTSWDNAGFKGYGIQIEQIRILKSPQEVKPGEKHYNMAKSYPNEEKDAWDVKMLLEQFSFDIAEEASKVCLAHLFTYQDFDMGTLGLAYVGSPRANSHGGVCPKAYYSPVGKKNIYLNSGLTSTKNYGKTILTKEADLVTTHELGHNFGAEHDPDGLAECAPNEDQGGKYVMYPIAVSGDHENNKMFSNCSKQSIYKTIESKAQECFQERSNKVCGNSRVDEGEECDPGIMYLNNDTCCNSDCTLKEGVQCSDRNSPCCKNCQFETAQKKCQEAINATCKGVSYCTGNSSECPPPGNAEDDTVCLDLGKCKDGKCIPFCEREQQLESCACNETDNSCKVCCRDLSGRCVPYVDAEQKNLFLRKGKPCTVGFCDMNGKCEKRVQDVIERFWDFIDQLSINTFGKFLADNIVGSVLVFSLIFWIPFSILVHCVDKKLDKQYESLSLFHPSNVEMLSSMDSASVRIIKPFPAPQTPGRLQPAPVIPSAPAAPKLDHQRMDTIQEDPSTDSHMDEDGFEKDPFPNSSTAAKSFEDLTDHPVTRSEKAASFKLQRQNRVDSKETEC
Protocol: The activity was measured by a continuous detection of increased fluorescence intensity during 12 min. The substrate consisted of a peptide with a fluorescent donor 7-methoxycoumarin (Mca) and a quenching acceptor 2,4-dinitrophenyl group (Dpa), typically Mca-P-L-A-Q-A-V-Dpa-R-S-S-S-R-NH2 (R&D Systems, ES003). The cleavage site by TACE is the peptide bond between Ala and Val. The compounds were tested at a range of concentrations while the enzyme and substrate concentrations were fixed. A typical TACE assay employs recombinant human TACE (supplied by R&D Systems) in an assay buffer (25 mM Tris-HCl, pH=9.0, 2.5 μM ZnCl2, 0.005% Brij 35). The enzyme concentration (TACE) used was 100 ng/ml, the substrate was prepared at a 100 μM stock solution in DMSO and a 96-well polypropylene plate was used for the reaction mixtures. To each well of the plate was added assay buffer 90.0 μl, enzyme (TACE) 0.09 μl and inhibitor 1 μl. The reactions were started by addition of substrate 10 μl/well, giving a substrate concentration of 10 μM and a total volume of 100 μl/well. The total concentration of DMSO was not above 1%. The assay was performed at ambient temperature. Product fluorescence ([…]) was monitored with a Thermo Labsystems Fluoroskan Ascent plate reader. The Ki was determined by Prism Software.
(§1) The selectivity for MMP-12 over MMP-3 and TACE was evaluated for a representative selection of the compounds of the invention by comparing the Ki figures obtained when tested in the corresponding enzyme assays, such as those described above. The selectivity is presented as the fold difference in Ki for TACE and MMP-3 compared to MMP-12 and is calculated as the ratio Ki(TACE)/KiMMP-12 and Ki(MMP-3)/KiMMP-12 respectively.

recombinant human MMP-3 = target: T3, recombinant human MMP-3 (Homo sapiens, UniProt P08254); experiment: MMP-3 enzyme assay (FRET substrate), selectivity versus MMP-12; conditions: fold difference in Ki for MMP-3 compared to MMP-12
T3 construct: purchased R&D Systems
T3 sequence (P08254 100-477): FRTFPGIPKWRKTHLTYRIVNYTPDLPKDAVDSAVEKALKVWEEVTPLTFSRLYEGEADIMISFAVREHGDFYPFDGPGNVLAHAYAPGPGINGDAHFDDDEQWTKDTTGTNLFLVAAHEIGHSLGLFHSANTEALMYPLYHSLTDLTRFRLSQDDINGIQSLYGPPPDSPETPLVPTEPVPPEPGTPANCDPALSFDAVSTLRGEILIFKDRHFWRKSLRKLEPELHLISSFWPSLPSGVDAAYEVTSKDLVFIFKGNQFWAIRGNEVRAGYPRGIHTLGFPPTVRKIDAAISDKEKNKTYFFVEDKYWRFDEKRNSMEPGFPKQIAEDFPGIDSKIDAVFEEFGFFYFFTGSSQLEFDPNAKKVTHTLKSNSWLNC
Protocol: The activity was measured by a continuous detection of increased fluorescence intensity during 12 min. The substrate consisted of a peptide with a fluorescent donor 7-methoxycoumarin (Mca) and a quenching acceptor 2,4-dinitrophenyl group (Dpa), typically Mca-Arg-Pro-Lys-Pro-Val-Glu-Nval-Trp-Arg-Lys(Dnp)-NH2 (R&D Systems, ES002). The cleavage site by MMP-3 is the peptide bond between Glu and Nval. The compounds were tested at a range of concentrations, the enzyme concentration (MMP-3) was fixed at 400 ng/ml and the substrate concentrations was 10 μM. The MMP-3 assay used employs recombinant human MMP-3 (supplied by R&D Systems) in an assay buffer of 50 mM Tris-HCl, 200 mM calcium acetate at pH=7.5. The MMP-3 enzyme was preactivated by dilution to 0.119 mg/ml into 1 mM APMA (p-aminophenylmercuric acetate) followed by incubation at 37° C. for 24 hours. The substrate was prepared at a 100 μM stock solution in DMSO and a 96-well polypropylene plate was used for the reaction mixtures. To each well of the plate was added assay buffer 90.0 μl, enzyme (MMP-3) 0.3 μl and inhibitor 1 μl. The reactions were started by addition of substrate, 10 μl/well, to a total volume of 100 μl/well. The total concentration of DMSO was not above 1%. The assay was performed at ambient temperature. Product fluorescence ([…]) was monitored with a Thermo Labsystems Fluoroskan Ascent plate reader. The Ki was determined by Prism Software.
as §1

T1 sequence (P39900 106-470): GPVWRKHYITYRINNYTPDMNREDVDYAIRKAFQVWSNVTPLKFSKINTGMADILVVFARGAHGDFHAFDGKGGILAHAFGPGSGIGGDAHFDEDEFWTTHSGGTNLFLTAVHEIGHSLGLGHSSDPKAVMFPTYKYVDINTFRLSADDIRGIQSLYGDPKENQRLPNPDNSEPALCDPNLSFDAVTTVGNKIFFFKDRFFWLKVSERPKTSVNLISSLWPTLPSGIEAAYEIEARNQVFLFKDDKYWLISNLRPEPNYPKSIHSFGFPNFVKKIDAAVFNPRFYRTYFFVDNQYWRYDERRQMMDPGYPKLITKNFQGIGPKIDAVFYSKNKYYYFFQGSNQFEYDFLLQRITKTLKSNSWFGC

| SMILES | Ki (recombinant human MMP-12) | Ki(TACE)/Ki(MMP-12) (recombinant human TACE) | Ki(MMP-3)/Ki(MMP-12) (recombinant human MMP-3) |
| --- | --- | --- | --- |
| Cc1ccccc1CCC1NC(=O)N(C(C(=O)NO)C(C)C)C1=O (centres unmarked) [Example 28, 2-[2,5-Dioxo-4-(2-o-tolylethyl)-imidazolidin-1-yl]-N-hydroxy-3-methyl-butyramide] | ≤ 50 nM |  |  |
| Cc1ccc(CCC2NC(=O)N(C(C(=O)NO)C(C)C)C2=O)cc1 (centres unmarked) [Example 30, 2-[2,5-Dioxo-4-(2-p-tolylethyl)-imidazolidin-1-yl]-N-hydroxy-3-methyl-butyramide] | ≤ 50 nM | 2200 | 75 |
| CC(C)[C@H](C(=O)NO)N1C(=O)N[C@@H](CCCCNC(=O)c2ccccc2)C1=O [Example 25h] | > 200 nM |  |  |
| COc1ccccc1CCC1NC(=O)N(C(C(=O)NO)C(C)C)C1=O (centres unmarked) [Example 31, N-Hydroxy-2-{4-[2-(2-methoxyphenyl)-ethyl]-2,5-dioxo-imidazolidin-1-yl}-3-methyl-butyramide] | ≤ 50 nM |  |  |
| O=C(NO)[C@@H](Cc1ccccc1)N1C(=O)N[C@@H](CCc2ccccc2)C1=O [Example 10, 2-(2,5-Dioxo-4-phenethyl-imidazolidin-1-yl)-N-hydroxy-3-phenhyl-propionamide] | ≤ 50 nM | >150 | 34 |
| CC(C)[C@H](C(=O)NO)N1C(=O)N[C@@H](COCc2ccc(Br)cc2)C1=O (stereo in doubt) [Example 13i, 2-[4-(4-Bromobenzyloxymethyl)-2,5-dioxo-imidazolidin-1-yl]-N-hydroxy-3-methyl-butyramide] |  | >190 | >190 |
| Cc1cccc(CCC2NC(=O)N(C(C(=O)NO)C(C)C)C2=O)c1 (centres unmarked) [Example 29, 2-[2,5-Dioxo-4-(2-m-tolylethyl)-imidazolidin-1-yl]-N-hydroxy-3-methyl-butyramide] | ≤ 50 nM |  |  |
| CC(C)(C)[C@H](C(=O)NO)N1C(=O)N[C@@H](CCc2ccccc2)C1=O [Example 12, 2-(2,5-Dioxo-4-phenethyl-imidazolidin-1-yl)-N-hydroxy-3,3-dimethyl-butyramide] |  | 245 | 122 |
| CC(C)[C@H](C(=O)NO)N1C(=O)N[C@@H](CCc2ccc(Cc3ccccc3)cc2)C1=O [Example 39, 2-{4-[2-(4-Benzylphenyl)-ethyl]-2,5-dioxoimidazolidin-1-yl}-N-hydroxy-3-methylbutyramide] | ≤ 50 nM |  |  |
| CC(C)[C@H](C(=O)NO)N1C(=O)N[C@@H](CCc2cccc(F)c2)C1=O [Example 37, 2-{4-[2-(3-Fluoro-phenyl)-ethyl]-2,5-dioxoimidazolidin-1-yl}-N-hydroxy-3-methylbutyramide] | ≤ 50 nM |  |  |
| CC(C)[C@H](C(=O)NO)N1C(=O)N[C@@H](CCc2ccc(C(=O)Cc3ccccc3)cc2)C1=O [Example 40, 2-{2,5-Dioxo-4-[2-(4-phenylacetyl-phenyl)-ethyl]-imidazolidin-1-yl}-N-hydroxy-3-methylbutyramide] | ≤ 50 nM |  |  |
| COc1cccc(CCC2NC(=O)N(C(C(=O)NO)C(C)C)C2=O)c1 (centres unmarked) [Example 32, N-Hydroxy-2-{4-[2-(3-methoxyphenyl)-ethyl]-2,5-dioxoimidazolidin-1-yl}-3-methylbutyramide] |  | 140 | >200 |
| CC(C)[C@H](C(=O)NO)N1C(=O)N[C@@H](COCc2cccc(F)c2)C1=O [Example 15, 2-[4-(3-Fluorobenzyloxymethyl)-2,5-dioxo-imidazolidin-1-yl]-N-hydroxy-3-methyl-butyramide] | 51 to 200 nM | >700 | 120 |
| CCc1ccc(CC[C@@H]2NC(=O)N([C@@H](C(=O)NO)C(C)C)C2=O)cc1 [Example 34, 2-{4-[2-(4-Ethylphenyl)-ethyl]-2,5-dioxoimidazolidin-1-yl}-N-hydroxy-3-methyl-butyramide] | ≤ 50 nM |  |  |
| CC(C)[C@H](C(=O)NO)N1C(=O)N[C@@H](CCc2ccc(Oc3ccccc3)cc2)C1=O (stereo in doubt) [Example 26, 2-{2,5-Dioxo-4-[2-(4-phenoxyphenyl)-ethyl]-imidazolidin-1-yl}-N-hydroxy-3-methyl-butyramide] | ≤ 50 nM |  |  |
| CC(C)[C@H](C(=O)NO)N1C(=O)N[C@@H](CCc2ccc(F)cc2)C1=O [Example 38, 2-{4-[2-(4-Fluoro-phenyl)-ethyl]-2,5-dioxoimidazolidin-1-yl}-N-hydroxy-3-methylbutyramide] | ≤ 50 nM | 390 | 150 |
| COc1ccc(CC[C@@H]2NC(=O)N([C@@H](C(=O)NO)C(C)C)C2=O)cc1 [Example 33, N-Hydroxy-2-{4-[2-(4-methoxyphenyl)-ethyl]-2,5-dioxoimidazolidin-1-yl}-3-methylbutyramide] | ≤ 50 nM |  |  |
| CC(C)[C@H](C(=O)NO)N1C(=O)N[C@H](CCc2ccccc2)C1=O [Example 7, 2-(2,5-Dioxo-4-phenethyl-imidazolidin-1-yl)-N-hydroxy-3-methyl-butyramide] | 51 to 200 nM | >80 | 53 |
| CC(C)[C@H](C(=O)NO)N1C(=O)N[C@@H](CCc2ccccc2F)C1=O [Example 36, 2-{4-[2-(2-Fluorophenyl)-ethyl]-2,5-dioxoimidazolidin-1-yl}-N-hydroxy-3-methylbutyramide] | ≤ 50 nM | 280 | 240 |
| CC(C)[C@H](C(=O)NO)N1C(=O)N[C@@H](CCc2ccc(-c3ccccc3)cc2)C1=O (stereo in doubt) [Example 5, 2-[4-(2-Biphenyl-4-yl-ethyl)-2,5-dioxo-imidazolidin-1-yl]-N-hydroxy-3-methyl-butyramide] |  | >4500 | 71 |
| CC(C)[C@H](C(=O)NO)N1C(=O)N[C@@H](CCc2ccccc2)C1=O [Example 1] |  | 380 | 140 |
